Measured values: patent US7189523B2, “Methods of identifying compounds that modulate IL-4 receptor-mediated IgE synthesis utilizing a B-cell associated protein” (Rigel Pharmaceuticals, Inc., priority 2002, dated 2007)

Experiments:
human BAP-37 (hBAP-37) = molecular target: T1, human BAP-37 (hBAP-37) (Homo sapiens, UniProt Q99623); experiment: β-galactosidase yeast two hybrid (YTH) interaction assay; type: binding; conditions: peptide as bait
T1 construct: expressed in transfected cells; prey cDNA from a library of the A5T4 reporter line (BJAB human B-cells)
Experimental: Potential binding partners for peptide CL08wt (SEQ ID NO: 1) were identified in a β-galactosidase yeast two-hybrid (YTH) assay using peptide CL08wt (SEQ ID NO: 1) as bait and a cDNA library constructed from the A5T4 reporter cell line as prey. Binding was assessed by β-galactosidase quantification using BetaFluor (Novagen) as a substrate. A negative interaction control (no cDNA fused downstream of the GAL4 activation domain sequence) was also run. A general outline of the YTH assay is illustrated in FIG. 6A. Following clustering, filtering to remove non-specific bait hits (e.g., GFP and BFP), singletons and clusters recognized by 10 or more cDNA baits (based upon historical YTH assays), 7 prey clones were identified as hits.
Potential targets identified in the YTH assay were reconfirmed as generally outlined in FIG. 7. The cDNA clones identified as hits in the YTH assay were purified and rescreened for interaction with the CL08wt peptide in YTH assay. The hit clones were also screened in a control assay for interaction with the BFP using a vector (pGBKT7) that contained only the BFP and not the CL08wt peptide. At this stage, 7 putative target clones remained.
The interaction of CL08wt (SEQ ID NO: 1) peptide and its mutants with the clones identified as potential targets for the peptide CL08wt (SEQ ID NO: 1) was then quantified in a β-galactosidase YTH assay. The YTH assay was performed in the manner described above. A general outline of this YTH assay is illustrated in FIG. 6B. For each clone tested, an interaction profile was developed by comparing the β-galactosidase activity of each mutant to that of the wild type peptide, as described above.
The interaction of these N, IOF and ROF mutants with different polypeptides encoded by the putative target clones were quantified using the YTH assay described above. […]

[1] = tested on: IL-4 induced germline ε transcription (ε promoter reporter) in naïve A5T4 cells; experiment: Re-infection (DNA transfer) assay in naïve A5T4 reporter cells; also used for the functional profile of the mutants; type: cell-based, human; conditions: for functional category of the mutant compared to CL08wt: % change in reporter ratio calculated after subtracting 1.0 from the individual ratios; for Reporter Ratio: Table 2, CL08wt and mutants screened in the A5T4 reporter line
Experimental: The ability of peptide CL08wt (SEQ ID NO: 1) to inhibit germline ε transcription was confirmed in naïve cells. Briefly, Phoenix cells were transfected with a retroviral vector encoding a BFP-CL08wt peptide fusion as described in WO 99/58663 and WO 97/27213. Naïve A5T4 cells were infected with the resultant virions and grown for 3 days. The infected cells were stimulated with IL-4 (60 U/mL) and, after 3 days, the cells were assessed by FACS for BFP and GFP. […] The BFP fluorescence data corresponding to the BFP^+ and BFP^− populations are provided in Panel A. The GFP fluorescence data corresponding to the BFP^+ and BFP^− populations are presented in Panel B. The reporter ratio for this purpose is determined as the geometric mean of the GFP fluorescence of the BFP^− population divided by the geometric mean of the GFP fluorescence of the BFP^+ population. The reporter ratio for the CL08 in this re-infection assay was 1.39.
A collection of CL08 mutants was generated by replacing single or double amino acid residues in the sequence of CL08wt (SEQ ID NO: 1) with a different amino acid, typically an alanine, as described in copending application Ser. No. 10/095,659, entitled Methods of Identifying Protein Targets, filed Mar. 8, 2002. The functional profiles for the mutants derived from CL08wt (SEQ ID NO: 1) was obtained by constructing and screening for activity in the A5T4 reporter cell line in the manner described above. The activity of each mutant at the germline ε promoter is reflected in the reporter ratio, as described above. The reporter ratios were the functional values that were used to develop the functional profiles.
TABLE 2 depicts the amino acid sequences (the mutations are underlined) of the mutants tested and the measured reporter ratios when screening in the A5T4 reporter line.
Comparison of the interaction and functional profiles was performed by categorizing the mutants of CL08 based on the functional and interaction assays. Based on the reporter ratio, described in panel C of FIG. 5, each mutant was categorized into one of four functional categories: (1) reduction of function (ROF); (2) loss of function (LOF); (3) increase of function (IOF) or (4) functionally neutral (N), as compared to the activity of the wild type peptide, here CL08wt. As mentioned previously, cells expressing a peptide that inhibits germline ε transcription have reporter ratios of ≧1.1. Cells expressing a loss of function mutant have a reporter ratio of […]. […] Functionally neutral mutants have reporter ratios that fall within ±50% of that of the CL08wt (SEQ ID NO: 1) peptide. The % increase or decrease in reporter ratio is calculated after subtracting 1.0 from the individual ratios. […]

[2] = tested on: IL-4 induced germline ε transcription (ε promoter reporter) in A5T4 reporter cells; experiment: A5T4 reporter line screening assay of library clones (HBEGF2a/GFP reporter, FACS); type: cell-based, human; conditions: geometric mean GFP fluorescence, +IL-4/+Dox to +IL-4/−Dox populations; IL-4 60 U/mL, Dox 10 ng/ml; ≧1.1 = inhibition
Text: Peptide CL08wt (SEQ ID NO: 1) was identified by screening a retroviral library of random peptide 20-mers for the ability to inhibit IL-4 induced germline ε transcription using the HBEGF2a/[…] dual reporter phenotypic screening system described in WO 01/31232. To construct the random library, A5T4 reporter cells (described in more detail below) were infected with an infectious retroviral library of random peptide 20-mers (prepared as described in WO 97/27213; see also WO 01/34806 at page 39, line 36 through page 40, line 19). The retroviral vector used includes a gene encoding blue fluorescent protein (BFP) fused upstream of the region encoding the random peptide via a linker region encoding an α-helical peptide linker (expression fusion product is referred to as “BFP-peptide”). Expression of the BFP-peptide product is controlled by a promoter sensitive to the tetracycline-regulated transactivator such that expression of the BFP-peptide is regulated by tetracycline (Tet) or doxycycline (Dox). See U.S. patent application Ser. No. 10/096,339 entitled “Methods and Compositions for Screening for Alter Cellular Phenotypes”, filed on Mar. 8, 2002. […]

[3] = tested on: ST486 endogenous α promoter; experiment: TAQMAN assay of germline α transcription (selectivity); type: cell-based; conditions: ST486 cells stimulated with TGF-β 40 ng/ml; average of 3 values; p=0.7371
Experimental: The assay was similar to that described in the immediately preceding section, except that ST486 cells (ATCC #CRL-1647) engineered to express the tetracycline-regulated transactivator were infected and the infected cells were stimulated with TGF-β (40 ng/ml; Peprotech). The primers and probe, which are specific for the transcription product driven by the ST486 endogenous α promoter, were as follows (the probe was labeled at the 5′-end with Fam and at the 3′-end with Tamra): […]

T1 sequence (Q99623 whole entry): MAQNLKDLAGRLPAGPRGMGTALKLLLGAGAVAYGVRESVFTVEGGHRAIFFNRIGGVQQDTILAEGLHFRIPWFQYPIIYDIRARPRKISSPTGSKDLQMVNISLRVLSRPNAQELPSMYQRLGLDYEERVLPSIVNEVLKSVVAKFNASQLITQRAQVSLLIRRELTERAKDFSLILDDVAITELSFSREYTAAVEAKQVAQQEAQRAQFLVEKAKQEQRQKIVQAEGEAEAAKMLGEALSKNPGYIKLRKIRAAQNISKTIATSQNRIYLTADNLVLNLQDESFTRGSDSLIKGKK

TGAAVELQINRSIMHYISSP (peptide encoded by synthetic oligomer) [CL08VH, double alanine mutant of CL08wt]
binding to human BAP-37 in yeast two hybrid interaction assay (human BAP-37 (hBAP-37)): bind | functional category of the mutant compared to CL08wt [1]: ROF (a reduction of function of mutant (ROF) shows a >50% decrease in reporter ratio)

TGVHVAAQINRSIMHYISSP (peptide encoded by synthetic oligomer) [CL08EL, double alanine mutant of CL08wt]
Reporter Ratio [1]: 1.43

TGVHVELQIAASIMHYISSP (peptide encoded by synthetic oligomer) [CL08NR, double alanine mutant of CL08wt]
binding to human BAP-37 in yeast two hybrid interaction assay (human BAP-37 (hBAP-37)): bind | functional category of the mutant compared to CL08wt [1]: IOF (An increase of function mutant (IOF) shows a >50% increase in reporter ratio)

TGVHVELQINRSIMAAISSP (peptide encoded by synthetic oligomer) [CL08HY, double alanine mutant of CL08wt]
Reporter Ratio [1]: 1.54

TGVHVELQINRSIMHYISSP (peptide encoded by synthetic oligomer) [CL08wt, 20-mer peptide from a random retroviral library, expressed as BFP-peptide fusion]
Reporter Ratio [2]: 1.37 | binding to human BAP-37 in yeast two hybrid interaction assay (human BAP-37 (hBAP-37)): bind | endogenous α inhibition ratio [3]: 1.06
